These results are taken from publication PMC4273223, “(2R,1'S,2'R)- and (2S,1'S,2'R)-3-[2-Mono(di,tri)fluoromethylcyclopropyl]alanines and their incorporation into hormaomycin analogues” (Beilstein Journal of Organic Chemistry, 2014).

For assay [1], the system named is Plasmodium falciparum strain K1. The assay can be described thus: microbe, parasite or virus in culture. As for the experimental part:
(§1) The syntheses of hormaomycin (1) itself and of its all-peptide aza-analogues 60 and 61 (Figure 6) as developed by Zlatopolskiy et al., were reproduced in order to provide large enough quantities for biological tests of their antimalarial activities.
(§2) In vitro antiprotozoal activity assays: The in vitro activities against the protozoan parasites L. donovani and P. falciparum as well as cytotoxicity assessments against L6 cells were determined as reported elsewhere.

Assay [2] relates to coryneform bacteria. On the set-up: method as in doi:10.1002/hlca.19890720303, doi:10.1002/ange.19901020122. The conditions noted are these: cited from earlier work.
The subject of assay [3] is Leishmania donovani strain MHOM-ET-67/L82. In words: microbe, parasite or virus in culture. Particulars: for activity against L. donovani (in words): in vitro. As for the experimental part: as §1, §2
Details of assay [4]: method as in PMID 12760691. Particulars: cited from earlier work.
Assay [5] relates to L6 cells. The assay can be described thus: cells. As for the experimental part:
as §2

Converted amounts (≈) assume the structure as drawn. Counter-ions that a name gives are not always drawn. Starred links: 1 amine or outer side, 2 acyl side, 3 side chain; linkers in the order of their positions; H or OH if unused. Positions of bridges follow the written chain, without caps; N, C: chain ends. Non-standard residues stand in square brackets, D forms with d. Residues, ends and D or L forms follow the SMILES beside them. *: point of attachment. X1 = O=C([C@@H](C[C@@H]1C[C@H]1C(F)(F)F)N[*:1])[*:2]; X2 = C/C=C\[C@H]1C[C@@H](C(=O)[*:2])N([*:1])C1; Phe(3R-Me) = C[C@H](c1ccccc1)[C@H](N)C(=O)O; d(aThr) = C[C@@H](O)[C@@H](N)C(=O)O; Tfa = O=C(C(F)(F)F)*

`CCN(CC)CCCC(C)Nc1ccnc2cc(Cl)ccc12` (stereo not shown) [Chloroquine, reference compound]: the IC50 in assay [1] (Plasmodium falciparum, K1, read-out: IC50 against Plasmodium falciparum strain K1) is 0.089 µg/mL (≈ 0.278 µM).

Take `C/C=C\[C@H]1C[C@H]2C(=O)O[C@H](C)[C@@H](NC(=O)[C@H](C[C@@H]3C[C@H]3[N+](=O)[O-])NC(=O)c3ccc(Cl)n3O)C(=O)N[C@@H]([C@H](C)c3ccccc3)C(=O)N[C@H](C[C@@H]3C[C@H]3[N+](=O)[O-])C(=O)N[C@@H]([C@H](C)c3ccccc3)C(=O)N[C@@H]([C@@H](C)CC)C(=O)N2C1` [Compound 1, hormaomycin]: the “inhibitory effect on coryneform bacteria (in words)” value in assay [2] is “exceptionally selective inhibitory effect”. Besides, in assay [3], the “activity against L. donovani (in words)” value is “showed an activity against L. donovani”. In addition, the “antimalarial activity (in words)” value was “good and selective antimalarial activities” in assay [1] (in vitro); “interesting antimalarial activity” in assay [4].

In the case of `C/C=C\[C@H]1C[C@H]2C(=O)O[C@H](C)[C@@H](NC(=O)[C@H](C[C@@H]3C[C@H]3C(F)(F)F)NC(=O)c3ccc(Cl)n3O)C(=O)N[C@@H]([C@H](C)c3ccccc3)C(=O)N[C@H](C[C@@H]3C[C@H]3C(F)(F)F)C(=O)N[C@@H]([C@H](C)c3ccccc3)C(=O)N[C@@H]([C@@H](C)CC)C(=O)N2C1` [Compound 8a], the “IC50 against L6 cells” value in assay [5] turned out to be 40 µg/mL (≈ 34 µM). For the same compound, in assay [3], the “IC50 against Leishmania donovani strain MHOM-ET-67/L82” value came out at 0.205 µg/mL (≈ 0.174 µM) and the “activity against L. donovani (in words)” value is given as “showed an activity against L. donovani”. Also, the “activity against L. donovani lower than that of hormaomycin (1)” value in assay [3] (relative to hormaomycin (1)) is 37%. The “IC50 against Plasmodium falciparum strain K1” value in assay [1] is 0.183 µg/mL (≈ 0.156 µM).

With `C/C=C\[C@H]1C[C@H]2C(=O)O[C@H](C)[C@@H](NC(=O)OCc3ccc(C)cc3)C(=O)N[C@@H]([C@H](C)c3ccccc3)C(=O)N[C@H](C[C@@H]3C[C@H]3C(F)(F)F)C(=O)N[C@@H]([C@H](C)c3ccccc3)C(=O)N[C@@H]([C@@H](C)CC)C(=O)N2C1` [Compound 52a], the “IC50 against L6 cells” value in assay [5] is given as greater than 90 µg/mL. For the same compound, the “IC50 against Leishmania donovani strain MHOM-ET-67/L82” value in assay [3] turned out to be 2.13 µg/mL (≈ 2.13 µM). For the same compound, the “IC50 against Plasmodium falciparum strain K1” value in assay [1] is recorded as 0.042 µg/mL (≈ 0.042 µM).

Regarding `C/C=C\[C@H]1C[C@H]2C(=O)O[C@H](C)[C@@H](NC(C)=O)C(=O)N[C@@H]([C@H](C)c3ccccc3)C(=O)N[C@H](C[C@@H]3C[C@H]3C(F)(F)F)C(=O)N[C@@H]([C@H](C)c3ccccc3)C(=O)N[C@@H]([C@@H](C)CC)C(=O)N2C1` [Compound 58] (Ac-[d(aThr)][Phe(3R-Me)][X1][Phe(3R-Me)]I[X2]; ester 1-C), the “IC50 against L6 cells” value in assay [5] is given as greater than 90 µg/mL. Also, the “IC50 against Leishmania donovani strain MHOM-ET-67/L82” value in assay [3] amounted to 1.73 µg/mL (≈ 1.93 µM). Moreover, the “IC50 against Plasmodium falciparum strain K1” value in assay [1] was found to be 0.151 µg/mL (≈ 0.169 µM).

For `C/C=C\[C@H]1C[C@H]2C(=O)O[C@H](C)[C@@H](NC(=O)C(F)(F)F)C(=O)N[C@@H]([C@H](C)c3ccccc3)C(=O)N[C@H](C[C@@H]3C[C@H]3C(F)(F)F)C(=O)N[C@@H]([C@H](C)c3ccccc3)C(=O)N[C@@H]([C@@H](C)CC)C(=O)N2C1` [Compound 59] (Tfa-[d(aThr)][Phe(3R-Me)][X1][Phe(3R-Me)]I[X2]; ester 1-C), in assay [5], the “IC50 against L6 cells” value is recorded as greater than 90 µg/mL. Also, in assay [3], the “IC50 against Leishmania donovani strain MHOM-ET-67/L82” value stood at 2.37 µg/mL. Moreover, the “IC50 against Plasmodium falciparum strain K1” value in assay [1] was found to be 0.265 µg/mL.

Turning to `C/C=C\[C@H]1C[C@H]2C(=O)NC[C@@H](NC(=O)OCc3ccc(C)cc3)C(=O)N[C@@H]([C@H](C)c3ccccc3)C(=O)N[C@H](C[C@@H]3C[C@H]3[N+](=O)[O-])C(=O)N[C@@H]([C@H](C)c3ccccc3)C(=O)N[C@@H]([C@@H](C)CC)C(=O)N2C1` [Compound 61], the “IC50 against Plasmodium falciparum strain K1” value in assay [1] was found to be 0.061 µg/mL (≈ 0.0633 µM).

Take `CCCCCCCCCCCCCCCCOP(=O)([O-])OCC[N+](C)(C)C` [Miltefosine, reference compound]: in assay [3] (Leishmania donovani, read-out: IC50 against Leishmania donovani strain MHOM-ET-67/L82), the IC50 was 0.143 µg/mL (≈ 0.351 µM).

On to `COc1cc([C@@H]2c3cc4c(cc3[C@H](O)[C@H]3COC(=O)[C@H]23)OCO4)cc(OC)c1OC` [Podophyllotoxin, reference compound], for which the IC50 in assay [5] (Rattus norvegicus, L6, read-out: IC50 against L6 cells) is 0.006 µg/mL (≈ 0.0145 µM).
